These are literature values, as cited in US7276253B2, “Stable drug form for oral administration with benzimidazole derivatives as active ingredient and process for the preparation thereof” (AstraZeneca AB, priority 1996, dated 2007).

The conditions of this data set: aqueous solution at pH values under 4.

Take `COc1ccc2[nH]c([S+]([O-])Cc3ncc(C)c(OC)c3C)nc2c1` (stereo not shown) [Omeprazole, 5-methoxy-2(((4-methoxy-3,5-dimethyl-2-pyridyl)methyl)-sulfinyl)-1H-benzimidazole]: the half-life entry is given as “less than ten”.
